Laboratory results taken from patent US20040009495A1, “Methods and products related to drug screening using gene expression patterns” (Whitehead Institute for Biomedical Research, priority 2001, published 2004).

Assays:
[1] = test system: HL60 cells; test: Marker gene expression ratios to GAPDH in HL60 control cells (multiplex RT-PCR, direct gene dendrimer readout); format: cell-based; details: for Ave IL1RN/GAPDH / Ave SPP1/GAPDH / IL1RN fold increase over AML / SPP1 fold increase over AML: HL60 cells; for Ave IL1RN/GAPDH / Ave SPP1/GAPDH: highest stringency filter of 50% dilution, 1 uM ATRA or 10 nM PMA; for IL1RN fold increase over AML / SPP1 fold increase over AML: versus undifferentiated HL60 (AML)
[2] = test system: HL60 cells; test: HL60 cell differentiation on exposure to inducing chemical; format: cell-based
Method: HL60 cells, provided by American Type Cell Culture (Manassas, Va.), were grown in RPMI medium 1640 with 10% fetal bovine serum (Sigma, St. Louis, Mo.) and 1% penicillin-streptomycin. For design of the model, neutrophil differentiation was stimulated with 1 uM ATRA (Sigma, St. Louis, Mo.) for 0, 24, 48, 72, and 120 hours and with 1.25% dimethyl sulfoxide (DMSO) (American Bioanalytical, Natick, Mass.) for 72 hours. Monocyte/macrophage differentiation was induced with 10 nM phorbol 12-myristate 13-acetate (PMA) (Sigma, St. Louis, Mo.) for 0, 4, 12, and 24, and 120 hours and with Vitamin D3 (1 alpha 25-dihydroxy) (Calbiochem, San Diego, Calif.) 2.5 uM for 72 hours. Differentiation was confirmed by morphological changes by light microscopy for monocyte/macrophage differentiation and by May Grunwald Giemsa stain for neutrophil differentiation.
Acute Myeloid Leukemia (AML) represents a form of cancer for which improved treatment in therapy is greatly sought. For more than 20 years, researchers have used a cell line (HL60 cell line) which closely mimics the behavior of AML and which is easily maintained in cell culture. […] The different gene expression signatures were evaluated for “in vivo authenticity” by confirming the same gene expression differences in native human neutrophils and native human monocytes compared to patient AML cells. […]

[3] = treated HL60 cells, text summary over 3 plex and 5 plex

Compound | Ave IL1RN/GAPDH ([1]; 3 plex) | Ave SPP1/GAPDH ([1]; 3 plex) | Ave IL1RN/GAPDH ([1]; 5 plex) | Ave SPP1/GAPDH ([1]; 5 plex) | differentiation of HL60 cells upon exposure [2] | IL1RN fold increase over AML ([1]; 3 plex) [fold] | SPP1 fold increase over AML ([1]; 3 plex) [fold] | IL1RN fold increase over AML ([1]; 5 plex) [fold] | SPP1 fold increase over AML ([1]; 5 plex) [fold] | IL1RN increase with respect to AML [1, 3] | SSP1 increase over AML [1, 3]
CC1=C(/C=C/C(C)=C/C=C/C(C)=C/C(=O)O)C(C)(C)CCC1 [ATRA, all trans retinoic acid] | 0.02 | 0.03 | 0.02 | 0.02 | differentiated into neutrophils | – | – | – | – | – | –
CCCCCCCCCCCCCC(=O)O[C@@H]1[C@@H](C)[C@@]2(O)[C@@H](C=C(CO)C[C@]3(O)C(=O)C(C)=C[C@@H]23)[C@@H]2C(C)(C)[C@]12OC(C)=O [PMA, Phorbol 12-myristate 13-acetate] | 2.04 | 1.17 | 0.98 | 0.55 | differentiated into monocyte/macrophage | 84.4 | 55.1 | 40.5 | 25.9 | 40-84 fold | 25-55 fold
